These results are taken from PubChem BioAssay (NCI).

Among the test systems are OVCAR-5 ovarian; OVCAR-4 ovarian; SNB-19 CNS; UACC-62 melanoma; SK-MEL-5 melanoma; COLO 205 colon; SK-MEL-2 melanoma; NCI-H226 lung; A549 NSCLC; DU-145 prostate.
Common to all, as to assay: NCI anticancer screen, dose series, 48 h

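Exposure lasted 48 hours, with cells grown in 96-well plates and compounds tested at five concentrations. TGI: total growth inhibition.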

For the compound `CS(=O)(=O)c1nc(-c2cc3c(c(S(C)(=O)=O)n2)CCC3)cc2c1CCCC2`, the TGI in the experiment with OVCAR-5 ovarian was over 100 µM; with OVCAR-4 ovarian, over 100 µM; in the experiment on SNB-19 CNS, over 100 µM; with UACC-62 melanoma it was 29.6 µM; in the experiment with SK-MEL-5 melanoma, over 100 µM; in the experiment on COLO 205 colon it was over 100 µM. Also, the TGI in the experiment on SK-MEL-2 melanoma was 59.3 µM; with NCI-H226 lung, over 100 µM; in the experiment with A549 NSCLC, over 100 µM; with DU-145 prostate, over 100 µM.

`CO[C@H]1O[C@@H]2CO[C@@H](c3ccccc3)O[C@H]2[C@@H]2C/C=C\CCC[C@@]12O`: the TGI was 52.5 µM with OVCAR-5 ovarian; over 100 µM with OVCAR-4 ovarian; over 100 µM in the experiment with SNB-19 CNS; 30.7 µM in the experiment with UACC-62 melanoma; 31.7 µM in the experiment on SK-MEL-5 melanoma; 33.6 µM with COLO 205 colon. For the same compound, the TGI is 34.2 µM in the experiment with SK-MEL-2 melanoma, 40 µM in the experiment with NCI-H226 lung, over 100 µM with A549 NSCLC and 51.8 µM in the experiment with DU-145 prostate.

For `CCOc1ccc(N=NC2C(=O)N(C(=O)CC(=O)Nc3ccccc3)N=C2C)cc1` (stereo not given), the TGI in the experiment with OVCAR-5 ovarian, in the experiment with OVCAR-4 ovarian, in the experiment with SNB-19 CNS, with UACC-62 melanoma, with SK-MEL-5 melanoma and in the experiment with COLO 205 colon was over 100 µM throughout. Further, the TGI with SK-MEL-2 melanoma, in the experiment on NCI-H226 lung, with A549 NSCLC and with DU-145 prostate was over 100 µM in each case.

Turning to `CC(C)(C)CC(C)(C)NC(=S)NO`, the TGI in the experiment on OVCAR-5 ovarian, with OVCAR-4 ovarian, in the experiment on SNB-19 CNS, in the experiment on UACC-62 melanoma, with SK-MEL-5 melanoma and with COLO 205 colon was over 100 µM throughout. In addition, the TGI in the experiment with SK-MEL-2 melanoma, in the experiment with NCI-H226 lung, in the experiment with A549 NSCLC and with DU-145 prostate was over 100 µM each time.

On to `O=C(O)CC[P+](c1ccccc1)(c1ccccc1)c1ccccc1`, for which the TGI with OVCAR-5 ovarian was over 100 µM; in the experiment on OVCAR-4 ovarian it was over 100 µM; in the experiment with SNB-19 CNS, over 100 µM; with UACC-62 melanoma it was over 100 µM; in the experiment with SK-MEL-5 melanoma, 42.2 µM; in the experiment with COLO 205 colon, 27.4 µM. Besides, the TGI in the experiment on SK-MEL-2 melanoma was 81.8 µM; in the experiment on NCI-H226 lung, over 100 µM; in the experiment with A549 NSCLC, over 100 µM; in the experiment with DU-145 prostate, over 100 µM.

For `CC(C)=CCOc1cc(NC(=S)c2ccsc2C)ccc1Cl`, the TGI in the experiment on OVCAR-5 ovarian, in the experiment on OVCAR-4 ovarian, with SNB-19 CNS, in the experiment with UACC-62 melanoma, in the experiment on SK-MEL-5 melanoma and in the experiment on COLO 205 colon was over 100 µM throughout. Besides, the TGI with SK-MEL-2 melanoma, with NCI-H226 lung, with A549 NSCLC and in the experiment with DU-145 prostate was over 100 µM each time.

On to `CCCC1C(=O)Nc2cccc3ncn(c23)C1=O` (stereo not given), for which the TGI with OVCAR-5 ovarian, in the experiment with OVCAR-4 ovarian, in the experiment with SNB-19 CNS, in the experiment on UACC-62 melanoma, in the experiment with SK-MEL-5 melanoma and in the experiment with COLO 205 colon was over 100 µM in each case. The TGI in the experiment with SK-MEL-2 melanoma, in the experiment with NCI-H226 lung, in the experiment on A549 NSCLC and in the experiment on DU-145 prostate was over 100 µM throughout.

On to `Cc1ccc(NC2=NCCO2)c2c1CCC2`, for which the TGI in the experiment on OVCAR-5 ovarian was over 100 µM; in the experiment with OVCAR-4 ovarian, over 100 µM; in the experiment with SNB-19 CNS, over 100 µM; in the experiment on UACC-62 melanoma it was over 100 µM; with SK-MEL-5 melanoma, 32.9 µM; with COLO 205 colon it was 83.6 µM. In addition, the TGI in the experiment with SK-MEL-2 melanoma was 48.9 µM; in the experiment on NCI-H226 lung, over 100 µM; in the experiment with A549 NSCLC, over 100 µM; in the experiment with DU-145 prostate, over 100 µM.

With `COCC1OC(S(=O)(=O)c2ccccc2)C(O)C(OC)C1OC` (stereo not given), the TGI in the experiment with OVCAR-5 ovarian, in the experiment on OVCAR-4 ovarian, with SNB-19 CNS, with UACC-62 melanoma, in the experiment with SK-MEL-5 melanoma and in the experiment on COLO 205 colon was over 100 µM in each case. Besides, the TGI with SK-MEL-2 melanoma, with NCI-H226 lung, in the experiment on A549 NSCLC and in the experiment on DU-145 prostate was over 100 µM in each case.

For the compound `Cc1ccc(-n2cc(-c3ccc(Cl)cc3)c3c(NN)ncnc32)cc1`, the TGI in the experiment with OVCAR-5 ovarian is 43.2 µM; in the experiment on OVCAR-4 ovarian it was 19.2 µM; with SNB-19 CNS it was 40.9 µM; with UACC-62 melanoma, 13.2 µM; in the experiment with SK-MEL-5 melanoma it was 7.23 µM; in the experiment on COLO 205 colon, 11.2 µM. Moreover, the TGI in the experiment on SK-MEL-2 melanoma worked out at 47.1 µM; in the experiment on NCI-H226 lung, 7.96 µM; with A549 NSCLC, 15.3 µM; with DU-145 prostate, 12.8 µM.

Regarding `NC(Cc1c[nH]c2cc([N+](=O)[O-])ccc12)C(=O)O` (stereo not given), the TGI with OVCAR-5 ovarian, with OVCAR-4 ovarian, with SNB-19 CNS, in the experiment with UACC-62 melanoma, in the experiment with SK-MEL-5 melanoma and with COLO 205 colon was over 100 µM throughout. Also, the TGI in the experiment on SK-MEL-2 melanoma, in the experiment on NCI-H226 lung, in the experiment on A549 NSCLC and in the experiment on DU-145 prostate was over 100 µM in each case.

As for `CS[C@]12[C@@H]3C(=O)N(C)C(=O)[C@@H]3[C@](C)(C(=O)N1C)C(=O)N2c1ccccc1`, the TGI in the experiment with OVCAR-5 ovarian, with OVCAR-4 ovarian, in the experiment with SNB-19 CNS, with UACC-62 melanoma, with SK-MEL-5 melanoma and in the experiment with COLO 205 colon was over 100 µM in each case. In addition, the TGI in the experiment on SK-MEL-2 melanoma, in the experiment on NCI-H226 lung, with A549 NSCLC and in the experiment on DU-145 prostate was over 100 µM in each case.
